Results published in paper PMC9862800, “Pharmaceutical Systems as a Strategy to Enhance the Stability of Oxytetracycline Hydrochloride Polymorphs in Solution” (Pharmaceutics, 2023).
Counter-ions that a name gives are not always drawn.

Key:
[1] = Chemical stability (degradation kinetics) in PBS by HPLC; assay type: physicochemical; conditions: 25.0 ± 0.1 °C; for k0, intrinsic rate constant of degradation of the free polymorph: PBS (pH 7.4), light protection, 30 µg/mL
Method: (§1) The kinetics of degradation of OxyCl polymorphs both in the presence and absence of ligands were investigated in the aqueous solutions and PBS.
(§2) Stock solutions of each solid form, as well as each ligand β-CD, ASP, and NAC, were prepared. These stock solutions were diluted to a final concentration of 30 µg/mL in water and PBS solutions to prepare the test solutions. The solutions containing ligands were prepared in the molar ratio of 1:1. These solutions were stored with light protection in order to diminish any photolytic effects in a water bath at a constant temperature of 25.0 ± 0.1 °C. Samples were withdrawn at appropriate time intervals and immediately analyzed by HPLC. The observed pseudo first-order rate constants (kobs) for the OxyCl polymorphs degradation were obtained from a linear regression analysis of the natural logarithm of the remaining solid forms plotted against time.
(§3) An HPLC-UV procedure under isocratic conditions was optimized. The results were expressed as the mean of the three determinations of samples prepared in duplicate. The HPLC system was an Agilent 1100 (Agilent Technologies, Waldbronn, Germany) equipped with a column Gemini C18 250 mm × 4.6 mm i.d. filled with 5 μm particles and a precolumn (guard cartridge SecurityGuard C18 4 mm × 3.0 mm i.d.) supplied by Phenomenex (Phenomenex Inc., Torrance, CA, USA). To avoid interference from degradation products, the UV detection was performed at a wavelength of 355 nm. The mobile phase was acetonitrile-water adjusted to a pH of 3 with phosphoric acid (20:80, v/v), and a flow rate of 1 mL/min was used. The column temperature was 25 °C and the injection volume was 50 µL.
(§4) Furthermore, linear regression analysis was used to estimate the intrinsic rate constant of degradation of the free OxyCl polymorphs (k0), the observed rate constant of OxyCl polymorphs in the presence of ligands (kobs), the half-life (t50), and the time of 10% degradation of the drug (t90).
The degradation plots were linear, indicating apparent first-order kinetics. […] It was observed that OxyCl-I degraded at a faster rate than OxyCl-II and OxyCl-III, with a degradation rate of OxyCl-II < OxyCl-III < OxyCl-I.

[2] = Apparent binding constant by UV-vis spectroscopy, Scott's plot, ligand β-CD; assay type: physicochemical; conditions: aqueous solution; absorption at 355 nm; Scott's equation, 1:1 stoichiometry; OxyCl 0.068 mM, ligand 0.068 to 10 mM
Method: (§5) UV-vis data were used to calculate the association or binding constants (Ka) of OxyCl polymorphs with each ligand in an aqueous solution by different treatment analyses. The concentration of OxyCl was kept constant (0.068 mM), while the concentration of ligands increased from 0.068 to 10 mM.
(§6) Ka values were determined by applying the formula of Benesi–Hildebrandt, adjusted by Scott utilized for a complex of 1:1 stoichiometry:(1) [L]/ΔAobs=[L]/ΔAc+1/Ka×ΔAc where [L] is the molar concentration of the ligand, ∆Aobs is the variation in the absorbance observed for the OxyCl solid form for a given [L], ΔAc is the variation in the absorbance between the complex and the free solid form.
(§7) The association constant (Ka) for the formation of binary systems was estimated from changes in the intensity of the absorption at 355 nm with increasing ligand concentration using double reciprocal plots of Scott´s equation. […] However, deviations in straight lines were detected for the binary systems with NAC, which determined it was impossible to calculate an association constant assuming this model. To determine the Ka for OxyCl:NAC systems, a model matrix that applied least-squares techniques for the linear transformation of the data was used.

[3] = Chemical stability (degradation kinetics) in aqueous solution by HPLC; assay type: physicochemical; conditions: 25.0 ± 0.1 °C; for k0, intrinsic rate constant of degradation of the free polymorph: light protection, 30 µg/mL
Method: as §1, §2, §3
It is important to mention that the results presented in these studies represent the first report about OxyCl polymorphs stability. The degradation curves of each OxyCl polymorph and its binary systems with β-CD, NAC, and ASP in an aqueous solution, under identical experimental conditions, were compared. […] The kinetic parameters, which are important in the pharmaceutical sector, were determined using a first-order reaction model that could be expressed by the following equation:ln Ct = […] − k t(8) where Ct and C0 were the concentrations of OxyCl at different reaction times and at the initial time, respectively, k was the degradation rate constant, and t was time. As a result, the slope of the fitted lines could be used to determine k.
as §4

[4] = Apparent binding constant by UV-vis spectroscopy, least-squares model matrix, ligand NAC; assay type: physicochemical; conditions: aqueous solution; absorption at 355 nm; model matrix with least-squares linear transformation; OxyCl 0.068 mM, ligand 0.068 to 10 mM
Method: as §5
Another model for measuring binding constants in data analysis utilizes least-squares analysis. The general approach is to use the linear regression method with a model matrix to find the binding association constant and then apply least-squares procedures to a linear transformation. The normal equations can be written in matrix form as:(2) M×P=Q where (3) M=[n∑x∑x∑x^2] (4) P=[a/b] (5) Q=[∑y/∑xy] then:(6) Ka=a/b
as §7

[5] = Apparent binding constant by UV-vis spectroscopy, Scott's plot, ligand ASP; assay type: physicochemical; conditions: aqueous solution; absorption at 355 nm; Scott's equation, 1:1 stoichiometry; OxyCl 0.068 mM, ligand 0.068 to 10 mM
Method: as §5, §6, §7

[6] = Apparent binding constant by UV-vis spectroscopy, Scott's plot, ligand HIS; assay type: physicochemical; conditions: aqueous solution; absorption at 355 nm; Scott's equation, 1:1 stoichiometry; OxyCl 0.068 mM, ligand 0.068 to 10 mM
Method: as §5, §6, §7

[7] = set-up: method as in doi:10.1016/j.molliq.2017.12.006; conditions: incorporated into β-CD cavity; hydrolytic degradation; cited from earlier work

SMILES	k0, intrinsic rate constant of degradation of the free polymorph [1] [h⁻¹]	t50, half-life ([1]; PBS) [h]	t90, time of 10% degradation of the drug ([1]; PBS) [h]	Apparent binding constants Ka, ligand β-CD [2]	t50, half-life [3] [h]	t90, time of 10% degradation of the drug [3] [h]	k0, intrinsic rate constant of degradation of the free polymorph [3] [h⁻¹]	Apparent binding constants Ka, ligand NAC [4] [M⁻¹]	Apparent binding constants Ka, ligand ASP [5]	Apparent binding constants Ka, ligand HIS [6] [M⁻¹]	increase of half-life in aqueous solutions by β-CD [7] [fold]	half-life at 30 µg/mL ([3]; pH 4, aqueous solution, read-out: t50, half-life (converted)) [h]	half-life at 30 µg/mL ([1]; PBS, pH 7.4, PBS, read-out: t50, half-life (converted)) [h]
CN(C)[C@@H]1C(O)=C(C(N)=O)C(=O)[C@@]2(O)C(O)=C3C(=O)c4c(O)cccc4[C@@](C)(O)[C@H]3[C@H](O)[C@@H]12 [OxyCl-II, Oxytetracycline hydrochloride]	0.005	139	21	15,425 M^−1	57	9	0.0121	4582	3063 M⁻¹	323			
NS(=O)(=O)c1cc2c(cc1Cl)NCNS2(=O)=O [hydrochlorothiazide]											~28		
CN(C)[C@@H]1C(O)=C(C(N)=O)C(=O)[C@@]2(O)C(O)=C3C(=O)c4c(O)cccc4[C@@](C)(O)[C@H]3[C@H](O)[C@@H]12 [OxyCl-III, Oxytetracycline hydrochloride]	0.007	102	15	3607 M⁻¹		9	0.0116	3897	1771 M⁻¹	8247		60	
CN(C)[C@@H]1C(O)=C(C(N)=O)C(=O)[C@@]2(O)C(O)=C3C(=O)c4c(O)cccc4[C@@](C)(O)[C@H]3[C@H](O)[C@@H]12 [OxyCl-I, Oxytetracycline hydrochloride]	0.009		12	3761 M⁻¹	68	10	0.0102	2042	34,645 M^−1	224			81
